The values that follow come from publication PMC8347092, “Betulin, a Newly Characterized Compound in Acacia auriculiformis Bark, Is a Multi-Target Protein Kinase Inhibitor” (Molecules, 2021).

SMILES strings stand for the structures. Structures can show the parent of a compound that is named as a salt.

The IC50 is the concentration needed to halve the response being measured. A low value points to inhibition by little substance.

The subject of test [1] is phospho-ERK1/2 (Thr202/Tyr204). Put plainly: Immunoblot of phospho-ERK1/2 in K562S cells. In kind it is cell-based, human. The note with it: 20 µM, 6 h treatment, ImageJ band quantification. The protocol:
The concentration of DMSO in the culture medium was 1%. Cell lysates were prepared by sonication of the cells in homogenization buffer with 0.5% of nonidet P-40 non-ionic detergent (NP-40) as described previously. SDS-PAGE and immunoblotting were performed following standard procedures. Anti-α-tubulin antibody (clone B512, T5168, 1:5000) was purchased from Sigma Aldrich (St. Louis, MO, USA). The anti-phospho-p44/42 MAPK (#28733–1-AP, 1:2000) was purchased from Proteintech® (Rosemont, IL, USA). This rabbit polyclonal antibody detects p44 and p42 MAPK when doubly phosphorylated (at Thr202 and Tyr204 of p44 and at Thr185 and Tyr187 of p42 MAPK).
Background: A western blot detects proteins with antibodies after separation by electrophoresis.

Test [2] relates to K562S (doxorubicin-sensitive K562) chronic myelogenous leukemia cells. In words: MTS cell viability assay, K562S cells. It is filed as cell-based, human. As to conditions: Homo sapiens, K562, 48 h exposure, n = 3. The protocol:
K562 (ATCC®, CCL-243, described here as K562S to indicate sensitivity to doxorubicin), a human chronic myelogenous leukemia cell line, was obtained from American Type Culture Collection (Manassas, VA, USA). A doxorubicin-resistant cell line (K562R, also known as K562/Adr) was kindly provided by the IRSET institute (Research Institute for Environmental and Occupational Health, INSERM, University of Rennes 1, France). The cells were maintained at 37 °C and 5% CO2 in Gibco™ 1640 Roswell Park Memorial Institute (RPMI-1640) medium containing 10% fetal bovine serum (FBS) (Life Technologies^TM, Thermo Fisher Scientific, Waltham, MA, USA).
Cell viability was evaluated with the MTS (3-(4,5-dimethylthiazol-2-yl)-5-(3-carboxymethoxyphenyl)-2-(4-sulfophenyl)-2H-tetrazolium) reduction kit, (CellTiter 96 Aqueous Non-Radioactive Cell Proliferation Assay, Promega, Fitchburg, WI, USA), according to the instructions of the manufacturer. […] Further details on experimental conditions used can be found in Delehouzé et al. 2017 [47].
A general note: Tetrazolium assays rely on reduction of a dye to a coloured formazan, in cell work by metabolically active cells.

`Cc1ccc(NC(=O)c2ccc(CN3CCN(C)CC3)cc2)cc1Nc1nccc(-c2cccnc2)n1` [imatinib mesylate, reference compound]: the “%pERK/Tubulin” value in test [1] is on record as 1.5%. `COc1cccc2c1C(=O)c1c(O)c3c(c(O)c1C2=O)C[C@@](O)(C(=O)CO)C[C@@H]3O[C@H]1C[C@H](N)[C@H](O)[C@H](C)O1` [Doxorubicin, reference compound] returned an IC50 in test [2] of 590 nM.
